What follows are molecules tested on IL-1β release upon NLRP3 activation in peripheral blood mononuclear cells (PBMC) (assay: PBMC IC50 Determination Assay). Conditions: Homo sapiens; LPS-primed PBMC, 30 min compound, stimulated with ATP (5 mM) or nigericin (10 μM) for 1 h; IL-1β ELISA; read-out: PBMC IC50.
Assay type: cell-based

Q: `CC(C)OC(=O)[C@@H](Cn1cnc(C#N)n1)OC(=O)Nc1c2c(cc3c1CCC3)CCC2` [Compound 126, Propan-2-yl (2R)-3-(3-cyano-1H-1,2,4-triazol-1-yl)-2-{[(1,2,3,5,6,7-hexahydro-s-indacen-4-yl)carbamoyl]oxy}propanoate] was tested. Which IC50 did it give?
A: 10 to 100 nM

Q: How did the IC50 turn out when `CC(C)OC(=O)C(Cc1ncccn1)OC(=O)NC12CCC(CC1)CC2` (stereo not shown) [Compound 127, Propan-2-yl 2-[({bicyclo[2.2.2]octan-1-yl}carbamoyl)oxy]-3-(pyrimidin-2-yl)propanoate] was run?
A: 1000 to 10000 nM

Q: Which IC50 does the source give for `CC(C)OC(=O)C(Cc1ccnnc1)OC(=O)Nc1c2c(cc3c1CCC3)CCC2` (stereo not shown) [Compound 128, Propan-2-yl 2-{[(1,2,3,5,6,7-hexahydro-s-indacen-4-yl)carbamoyl]oxy}-3-(pyridazin-4-yl)propanoate] here?
A: 100 to 1000 nM

Q: With `CC(C)OC(=O)C(Cc1ncc(C#N)cn1)OC(=O)Nc1c2c(cc3c1CCC3)CCC2` (stereo not shown) [Compound 130, Propan-2-yl 3-(5-cyanopyrimidin-2-yl)-2-{[(1,2,3,5,6,7-hexahydro-s-indacen-4-yl)carbamoyl]oxy}propanoate] as the molecule, how does the IC50 read?
A: 10 to 100 nM

— patent publication US12247011B2, “Selective inhibitors of NLRP3 inflammasome” (NodThera Limited, priority 2017, dated 2025)
